{"source": "patent US4479942A", "about": "“Tetrahydrofurnancarboxylic acid derivatives, processes for preparation thereof and pharmaceutical compositions thereof” (Fujisawa Pharmaceutical Co., Ltd., priority 1981, dated 1984)", "key": {"Candida albicans OUT6004": {"tested_on": "Candida albicans OUT6004", "test": "Antimicrobial activity test (in vitro), minimal inhibitory concentration against Candida, pulp assay method", "assay_type": "cell-based", "settings": "malt agar", "excerpt": "Antimicrobial activity test (in vitro):\nMinimal inhibitory concentration (MIC) against Candida: (Candida albicans OUT6004)\nMethod: Pulp assay method"}, "Candida albicans FP-633 [1]": {"tested_on": "Candida albicans FP-633", "test": "Protective efficacy in experimental infection in mice", "assay_type": "in vivo, mice (ddY-strains)", "settings": "one hour after i.v. infection, one week after infection", "excerpt": "Protective efficacy in experimental infection in mice:\nIn determining the protective efficacy against experimental infections of Candida in mice, the compound in Example 98 [1-(6-amino-9H-purin-9-yl)-1,3-dideoxy-3-(O-methyl-L-tyrosylamino)-β- D-ribofuranuronic acid dihydrochloride monohydrate] was suspended and diluted in sterile water to provide three concentrations of the drug for testing ddY-strains of mice aged 5 weeks and averaging 20 g in weight. Mice were used in groups of 5 mice each. One hour after the intravenous injection of 3.0×10^6 of Candida albicans FP-633 cells to each mouse, the drug solutions were administered subcutaneously or orally at the level mentioned below respectively.\nOne week after the infection, the test was considered complete and survival records of that day were made."}, "Candida albicans FP-618": {"tested_on": "Candida albicans FP-618", "test": "Minimal inhibitory concentration against Candida albicans, agar dilution method (FP-618)", "assay_type": "cell-based", "settings": "FP618, malt agar", "excerpt": "(§1) Antimicrobial activities of the compound in Example 98 [1-(6-amino-9H-purin-9-yl)-1,3-dideoxy-3-(O-methyl-L-tyrosylamino)-β- D-ribofuranuronic acid dihydrochloride monohydrate] against some species of Candida.\n(§2) Minimal inhibitory concentration (MIC) against Candida albicans:\n(§3) Method: Agar dilution method"}, "Candida albicans FP-622": {"tested_on": "Candida albicans FP-622", "test": "Minimal inhibitory concentration against Candida albicans, agar dilution method (FP-622)", "assay_type": "cell-based", "settings": "FP622, malt agar", "excerpt": "as §1, §2, §3"}, "Candida albicans FP-620": {"tested_on": "Candida albicans FP-620", "test": "Minimal inhibitory concentration against Candida albicans, agar dilution method (FP-620)", "assay_type": "cell-based", "settings": "FP620, malt agar", "excerpt": "as §1, §2, §3"}, "[2]": {"test": "Solubilities to various solvents"}, "Candida albicans FP-614": {"tested_on": "Candida albicans FP-614", "test": "Minimal inhibitory concentration against Candida albicans, agar dilution method (FP-614)", "assay_type": "cell-based", "settings": "FP614, malt agar", "excerpt": "as §1, §2, §3"}, "Candida albicans FP-616": {"tested_on": "Candida albicans FP-616", "test": "Minimal inhibitory concentration against Candida albicans, agar dilution method (FP-616)", "assay_type": "cell-based", "settings": "FP616, malt agar", "excerpt": "as §1, §2, §3"}, "Candida albicans FP-633 [3]": {"tested_on": "Candida albicans FP-633", "test": "Minimal inhibitory concentration against Candida albicans, agar dilution method (FP-633)", "assay_type": "cell-based", "settings": "FP633, malt agar", "excerpt": "as §1, §2, §3"}, "[4]": {"test": "Toxicity, intraperitoneal administration into mice", "assay_type": "in vivo", "settings": "more than 1,000 mg/kg"}}}
{"molecule": "Nc1ncnc2c1ncn2[C@@H]1O[C@H](C(=O)O)[C@@H](NC(=O)C(N)Cc2ccc([N+](=O)[O-])cc2)[C@H]1O", "note": "(mixture of isomers) [Example 73, 1-(6-Amino-9H-purin-9-yl)-1,3-dideoxy-3-[β-(4-nitrophenyl)-D,L-alanylamino]-β-D-ribofuranuronic acid]", "values": [{"measurement": "MIC", "setting": "Candida albicans OUT6004", "result": 31, "unit": "µg/mL"}]}
{"molecule": "COc1ccc(C[C@H](N)C(=O)N[C@H]2[C@@H](O)[C@H](n3cnc4c(N)ncnc43)O[C@@H]2C(=O)NCC(=O)O)cc1", "note": "[Example 55, N-Carboxymethyl-1-(6-amino-9H-purin-9-yl)-1,3-dideoxy-3-(O-methyl-L-tyrosylamino)-β-D-ribofuranuronamide]", "values": [{"measurement": "MIC", "setting": "Candida albicans OUT6004", "result": 31, "unit": "µg/mL"}]}
{"molecule": "COc1ccc(C[C@H](N)C(=O)N[C@H]2[C@@H](O)[C@H](n3cnc4c(N)ncnc43)O[C@@H]2C(=O)O)cc1.Cl.Cl.O", "note": "[Example 98, 1-(6-Amino-9H-purin-9-yl)-1,3-dideoxy-3-(O-methyl-L-tyrosylamino)-β-D-ribofuranuronic acid dihydrochloride monohydrate]", "values": [{"measurement": "Survival/infected", "setting": "Candida albicans FP-633 [1]; oral, 10 mg/kg", "result": "1/5"}, {"measurement": "Survival/infected", "setting": "Candida albicans FP-633 [1]; oral, 30 mg/kg", "result": "3/5"}, {"measurement": "Survival/infected", "setting": "Candida albicans FP-633 [1]; subcutaneous, 5 mg/kg", "result": "1/5"}, {"measurement": "Survival/infected", "setting": "Candida albicans FP-633 [1]; subcutaneous, 15 mg/kg", "result": "4/5"}, {"measurement": "MIC", "setting": "Candida albicans FP-618", "result": 0.8, "unit": "µg/mL"}, {"measurement": "MIC", "setting": "Candida albicans FP-622", "result": 3.1, "unit": "µg/mL"}, {"measurement": "MIC", "setting": "Candida albicans FP-620", "result": 0.2, "unit": "µg/mL"}, {"measurement": "Solubility", "setting": "[2]; acetone", "result": "Insoluble"}, {"measurement": "Solubility", "setting": "[2]; chloroform", "result": "Insoluble"}, {"measurement": "Solubility", "setting": "[2]; ethyl acetate", "result": "Insoluble"}, {"measurement": "Solubility", "setting": "[2]; methanol", "result": "Slightly soluble"}, {"measurement": "Solubility", "setting": "[2]; water", "result": "Slightly soluble"}, {"measurement": "MIC", "setting": "Candida albicans FP-614", "result": 0.8, "unit": "µg/mL"}, {"measurement": "MIC", "setting": "Candida albicans FP-616", "result": 0.2, "unit": "µg/mL"}, {"measurement": "MIC", "setting": "Candida albicans FP-633 [3]", "result": 1.6, "unit": "µg/mL"}, {"measurement": "Toxic symptom", "setting": "[4]", "result": "did not result in any toxic symtom"}, {"measurement": "MIC", "setting": "Candida albicans OUT6004", "result": 16, "unit": "µg/mL"}]}
{"molecule": "Nc1ncnc2c1ncn2[C@@H]1O[C@H](C(=O)O)[C@@H](NC(=O)[C@@H](N)Cc2ccccc2)[C@H]1O", "note": "[Example 39, 1-(6-amino-9H-purin-9-yl)-1,3-dideoxy-3-(L-phenylalanylamino)-β-D-ribofuranuronic acid]", "values": [{"measurement": "MIC", "setting": "Candida albicans OUT6004", "result": 31, "unit": "µg/mL"}]}
